# Columns and labels:
# [1] = system: E. faecalis, E. coli, S. aureus, L. monocytogenes and C. albicans; assay: Gram staining, microbial agglutination; format: cell-based; settings: 50 μg/ml, 6 h (20 h for C. albicans)
# Description: (§1) Enterococcus faecalis (ATCC 29212), Listeria monocytogenes (VA 15110/93), Escherichia coli (DH5α) and Staphylococcus aureus (ATCC 25923) were grown aerobically on blood agar plates. Candida albicans (ATCC 10231) was plated on Sabouraud dextrose agar plates. E. coli, S. aureus and C. albicans were cultured at 37 °C; E. faecalis and L. monocytogenes were cultured at 37 °C with an additional 5% CO2. Before the experiments, the organisms were subcultured to generate mid-logarithmic growth cultures for use as inoculates. Colonies from the agar were transferred using a sterile loop to Mueller-Hinton broth (Roth, Karlsruhe, Germany) and incubated for 100 min at 39 °C to achieve a McFarland density of 0.5. The C. albicans and bacterial inocula were normalized in Mueller-Hinton broth to 5 × 10^5 cells/ml immediately before use. For the experiments, an inoculum of 5 × 10^5 cells/ml was dispensed into 96-well plates containing Mueller-Hinton broth growth medium with Aβ peptides, as indicated below.
# The same cultures analysed by flow cytometry were used for the gram staining. After incubating the bacteria and C. albicans with the peptides, 10 μl of the cell suspensions were air-dried on microscope slides and flame-fixated. The smears were flooded with crystal violet solution for 2 min. The slides were rinsed and then incubated for 2 min with iodine solution. […]
# [2] = system: Enterococcus faecalis (ATCC 29212); assay: Colony forming units after plating Aβ-treated cultures; format: cell-based; settings: 50 μg/ml peptide, 6 h, Mueller-Hinton broth, inoculum 5 × 10^5 cells/ml, spiral plated, colonies counted after 24 h
# Description: as §1
# (§2) Immediately before the experiments, all peptides were diluted in Mueller-Hinton broth to reach a final concentration of 100 μg/ml.
# (§3) The viability of E. faecalis, E. coli and C. albicans was further examined by plating Aβ-treated cultures on agar plates. Cultures of E. coli, E. faecalis and C. albicans were prepared as described above. After incubation with 50 μg/ml Aβ1-40, Aβ1-42 or Aβ3p-42 for 6 h for bacteria and 20 h for C. albicans, the cell suspensions were diluted in Mueller-Hinton broth, and the microbial load was determined using an Eddy Jet Spiral Plater (IUL Instruments, Germany) by depositing 50 μl of sample on a rotating agar plate. Bacteria were grown on Mueller-Hinton agar plates, and C. albicans was grown on Sabouraud dextrose agar plates. After 24 h of incubation, colonies were counted and translated to colony-forming units (CFU)/ml.
# Escherichia coli (DH5α) = assay: as above; format: cell-based; settings: 50 μg/ml peptide, 6 h, Mueller-Hinton broth, inoculum 5 × 10^5 cells/ml, spiral plated, colonies counted after 24 h
# Description: as §1, §2, §3
# [3] = system: Candida albicans (ATCC 10231); assay: as above; format: cell-based; settings: 50 μg/ml peptide
# Description: as §1, §2, §3
# E. faecalis [4] = assay: Automated quantification of cell aggregation on immunocytochemistry slides; format: cell-based, Enterococcus faecalis; settings: 50 μg/ml, 6 h
# Description: (§4) The immunocytochemistry of E. faecalis and S. aureus was examined using the Gram preparations specified above. To achieve the robust adherence of pathogens on the glass slides during the staining procedure, cells were incubated with 2% paraformaldehyde (Sigma-Aldrich, Munich, Germany) on the slides and air dried for 60 min at room temperature, followed by washing with PBS (Biochrom, Berlin, Germany). […]
# (§5) All images were visually quality controlled. […] An automated quantitative phenotypic image analysis was performed using a custom-adapted version of the image analysis software DetecTiff. Pericellular Aβ peptide levels were quantified from the AF488 channel within donut-shaped masks (see Fig. 1B), which were generated from the DAPI channel in a three-step procedure. […] The Aβ peptide level in an individual cell was calculated as the arithmetic mean of all pixel values within the area of a donut-shaped mask and reported as the mean pixel intensity. Cell aggregation was quantified in an automated manner from segmented images of DAPI-stained nuclei by counting the number of bacteria adjacent to a selected individual bacterium within a rectangular 50-pixel[2] region.
# C. albicans = assay: Proliferation by turbidimetry at 570 nm; format: cell-based, Candida albicans; settings: 3.13 or 6.25 μg/ml, 20 h (Fig. 5 legend: 24 h), 37 °C
# Description: as §1
# An inoculum of 5 × 10^5 cells/ml was dispensed into 96-well plates containing Mueller-Hinton broth growth medium and 3.13 μg/ml or 6.25 μg/ml Aβ-peptides or LL-37 (Anaspec, Fremont, CA, USA). […] The resulting absorbance was measured with a SpectraMax 340 PC 384 microplate reader (Molecular Devices, Biberach, Germany). The proliferation of C. albicans was assessed by measuring turbidity at 570 nm.
# [5] = system: E. faecalis, E. coli, S. aureus, L. monocytogenes and C. albicans; assay: Flow cytometry of damaged microorganisms (increased autofluorescence / reduced forward scatter); format: cell-based; settings: 25 or 50 μg/ml, 6 h bacteria, 20 h C. albicans
# Description: as §1, with “below. […]” for “below.”
# After 6 h of incubation for bacteria and 20 h for C. albicans, 50 μl of the cell suspension was diluted in 1% paraformaldehyde (Sigma-Aldrich, Munich, Germany) and stained with DAPI (Sigma-Aldrich, Munich, Germany). Flow cytometry analysis was performed using a Gallios Cytometer (Beckman Coulter, Krefeld, Germany), and the results were evaluated using Kaluza® software (Beckman & Coulter, Krefeld, Germany). Experiments were repeated at least three times for each organism, and duplicates were included for each assay condition. Cultures treated with antibiotics, Mueller-Hinton broth without cells and untreated cells served as controls. Viability was assessed based on the increase in autofluorescence and reduction of forward scatter as signs of microbial damage.
# S. aureus = assay: Automated quantification of cell aggregation on immunocytochemistry slides; format: cell-based, Staphylococcus aureus; settings: 50 μg/ml, 6 h
# Description: as §4, §5
# E. faecalis [6] = assay: Scanning electron microscopy; format: cell-based, Enterococcus faecalis; settings: 50 μg/ml, 6 h
# Text: The specimens were attached to aluminum holders and sputtered with platinum in 15-nm layers using a LEICA EM SCD-500 (Leica, Wetzlar, Germany). The surface morphology of the platinum sputter-coated samples was investigated using a JSM 6 610 scanning electron microscope (JEOL, Peabody, MA, USA) at a working distance of 10 mm and an acceleration voltage of 10 kV at room temperature.
# [7] = Thioflavin T assay of Aβ peptide aggregation; format: physicochemical; settings: 160 μg/ml in PBS/0.4% NH4OH, 0.2 mM Thioflavin T, 37 °C, 6 h, Ex 450/Em 484 nm; with heat inactivated E. coli, S. aureus or C. albicans (McFarland 0.5) versus PBS alone or 0.5 μm carboxylated microbeads
# Description: Thioflavin T was used to monitor the aggregation of Aβ1-42 in the presence of microorganisms. In a black 96-well plate, 160 μg/ml of Aβ1-42 in PBS/0.4% NH4OH were mixed with heat inactivated E. coli, S. aureus or C. albicans at a final density of McFarland 0.5. Leaving away the microorganisms or adding 10 μg/ml carboxylated microbeads (Micromod, Rostock, Germany) with a diameter of 0.5 μm served as control. After adding Thioflavin T (Sigma-Aldrich, Munich, Germany) in final concentration of 0.2 mM, kinetic measurement was performed at 37 °C with excitation at 450 nm and emission at 484 nm in a CLARIOstar® microplate reader (BMG labtech, Ortenberg, Germany). Measurements containing the respective microorganisms but no Aβ1-42 served as blank.
# [8] = system: surfaces of E. faecalis and S. aureus; assay: Immunocytochemistry (6E10), Aβ peptide bound to microbial surface; format: binding; settings: 50 μg/ml, 6 h, 6E10 antibody, mean pixel intensity in donut-shaped masks
substance,measurement,setting,value
Aβ1-40: non-amyloidogenic amyloid-β peptide variant ending at position 40 (Anaspec),microbial agglutination in Gram stains,[1],Neither Aβ1-40 nor Aβ2-40 induced microbial agglutination
same,reduction of the number of colony forming units compared to untreated cultures,[2],not reduced
same,reduction of the number of colony forming units compared to untreated cultures,Escherichia coli (DH5α),not reduced
same,antimicrobial effect in culture (colony forming units),[3]; 20 h,moderate antimicrobial effect
same,agglutination of bacteria (number of cells around each bacterium),E. faecalis [4],almost no agglutination
same,proliferation of C. albicans (turbidity),C. albicans,miss the cytotoxic effect
same,antimicrobial / microbicidal activity by flow cytometry,[5],No microbicidal activity was observed
same,agglutination of bacteria (number of cells around each bacterium),S. aureus,almost no agglutination
same,aggregates of bacteria in scanning electron microscopy,E. faecalis [6],Only minor aggregates
"Aβ2-40: non-amyloidogenic, N-terminally truncated amyloid-β peptide variant ending at position 40 (Anaspec)",microbial agglutination in Gram stains,[1],Neither Aβ1-40 nor Aβ2-40 induced microbial agglutination
same,proliferation of C. albicans (turbidity),C. albicans,miss the cytotoxic effect
same,antimicrobial / microbicidal activity by flow cytometry,[5],No microbicidal activity was observed
same,aggregates of bacteria in scanning electron microscopy,E. faecalis [6],larger aggregates of bacteria that retained their vital morphology
Aβ1-42: amyloidogenic amyloid-β peptide variant ending at position 42 (Anaspec),reduction of the number of colony forming units compared to untreated cultures,[2],50%
same,reduction of the number of colony forming units compared to untreated cultures,Escherichia coli (DH5α),50%
same,reduction of the number of colony forming units,"[3]; 20 h (Fig. 5 legend: 24 h), Sabouraud dextrose agar, colonies counted after 24 h",85%
same,"agglutination (aggregation) of the peptide, Thioflavin fluorescence over time",[7],more rapid increase in Thioflavin fluorescence
same,agglutination of bacteria (number of cells around each bacterium),E. faecalis [4],led to agglutination
same,antimicrobial / microbicidal activity by flow cytometry,[5],exerted antimicrobial activity
same,"damaged microorganisms (reduced forward scatter and increased autofluorescence, AF+/FSC−), share of cells",[5]; DAPI-positive events,up to 70%
same,agglutination of bacteria (number of cells around each bacterium),S. aureus,led to agglutination
same,binding of Aβ peptide to microbial surfaces,[8],bound to microbial surfaces

# Source: PMC5021948, “Amyloidogenic amyloid-β-peptide variants induce microbial agglutination and exert antimicrobial activity” (Scientific Reports, 2016)
